# In patent publication US6265423A, “Aromatic polycyclic retinoid-type derivatives, method for preparing same, and use thereof for making pharmaceutical and cosmetic compositions” (priority 1996, dated 2001):
# What was measured:
# RARα-ERcassette = test: Transactivation, chimerical receptor RARα-ERcassette (HeLa); assay type: cell-based; details: TTNPB 10^-8 M = 100
# Source text: (§1) The HeLa cells are co-transfected by a plasmid which codes for a retinoic receptor in which the C domain of bonding to the DNA is substituted by that of the receptor to RE oestrogens, and a plasmid which places the expression of the luciferase under the control of an ERE (Element of Response to Oestrogens). The expressed chimerical receptors are designated as RARα-ERcassette, RARβ-ERcassette, RARγ-ERcassette and RXRα-ERcassette. The A, B, D, E and F regions of the natural receptor are preserved as well as the transcriptional co-operation between the activation domains AF-1 and AF-2. These transitory transfection experiments follow the method of co-precipitation to calcium phosphate. The HeLa cells are co-transfected by […] of plasmid coding for the chimerical receptor, […] of reporter plasmid and […] of expression vector CMV-β-galactosidase used as an internal control of transfection. 24 hours after the transfection, the cells are incubated for 16 hours with the different effectors.
# (§2) In this type of chimerical receptor, the C domain of bonding to the DNA of RAR is substituted by that of the receptor to the RE oestrogens. The protein obtained is close to the natural RAR receptor and preserves the transcriptional properties of the AF-1 and AF-2 domains. It modulates the transcription by means of an ERE. This RAR-ERcassette model allows one to observe a transcriptional response to a more physiological ligand.
# RARβ-ERcassette = test: Transactivation, chimerical receptor RARβ-ERcassette (HeLa); assay type: cell-based; details: TTNPB 10^-8 M = 100
# Source text: as §1, §2
# RARγ-ERcassette = test: Transactivation, chimerical receptor RARγ-ERcassette (HeLa); assay type: cell-based; details: TTNPB 10^-8 M = 100
# Source text: as §1, §2
# T-47D cells = test: Effect on oestrogen-induced proliferation of T-47D cells; assay type: cell-based, human
# Procedure: (§3) MCF-7 cells and HeLa are cultivated in DMFM with phenol red to which 5% foetal calf serum is added. The T47-D cells are cultivated in RPMI to which 10% foetal calf serum is added. The experimental tests are carried out in DMEM without phenol red to which foetal calf serum treated with dextran carbon is added at 3%. […] The experiments using the different retinoids are carried out sheltered from the light so as to avoid any isomerisation.
# So as to test the anti-proliferation effect of the retinoids, growth experiments under oestrogenic conditions were carried out on cells MCF-7 and T-47D. These are the human oestrogen-dependent mammary cancer cells which express the receptor to RE oestrogens. The effect of the molecules is evaluated after 7 days of culture in oestrogenic conditions (estradiol 10^-9 M) by dosing the cellular DNA. The cells are distributed in 24 well plates at a density of 2×10^4 cells per well. The tests with the different retinoids are carried out in triplicate and the culture medium is changed after 4 days of growth.
# [1] = system: response element RARE of RARβ gene, endogenic retinoic receptors, HRLN lineage; test: HRLN transactivation (RARE-luciferase, stably transfected HeLa); assay type: cell-based; details: for Emax: read-out: HRLN transactivation, E max
# Procedure: as §3
# (§4) Certain properties of the retinoids have been determined using more developed cellular models. These models consist of cellular lineages transfected in a stable fashion by recombinant plasmids which place the expression of the gene of the luciferase under the control of different nuclear response elements. […] The tests carried out in duplicate are described below for each of these models.
# The cellular lineages HRLN and HRL+N allow one to study the activation of an RARE by endogenic receptors using ligands at physiological concentrations. These lineages derive from HeLa cells transfected in a stable fashion by a reporter gene which places the expression of the gene of the luciferase under the control of a nuclear response element RARE (RARE3 -tk-Luc). The HeLa cells express all the known receptors of the retinoic acid (RARα,β,γ and RXRα,β,γ) with a predominance of RARα and RXRα. The response element RARE used for the HRLN cells corresponds to the sequence of the natural gene of the RARβ receptor (GGTTCAnnnnnAGTTCA). The HRL+N cells comprise the sequence GAGTGAnnnnnCGGTGA.
# This lineage comprises the response element RARE of the natural gene of the RARβ receptor which controls the expression of the gene of the luciferase.
# [2] = system: ERE-βGlob-Luc, MELN lineage (MCF-7); test: Anti-oestrogenic effect, MELN lineage activated by estradiol; assay type: cell-based, human; details: for inhibition: 10^-6 M; for inhibition at 0.1 µM: 10^-7 M; for anti-oestrogenic effect (in words): estradiol-activated MELN cells
# Source text: as §4
# MCF-7 cells express RARα,γ and RXRα. The transfection of MCF-7 cells by an oestrogen-dependent gene (ERE-βGlob-Luc) has permitted the establishment of the MELN cellular lineage, used to determine the anti-oestrogenic activity of the retinoids. These cells contain the gene of the luciferase under the transcriptional control of the promoter of the βGlobine and of the response element ERE isolated from the gene of chicken vitelogenine A2. The experiments are carried out with MELN cells activated by 10^-9 M estradiol. The level of base activity of the MELN cells is obtained with the anti-oestrogen 1 μM 4-OH-tamoxifen (hydroxytamoxifen).
# The effect of the products tested on the cells activated by 10^-9 M estradiol is expressed as a percentage, the level of base activity being deducted.
# RAR and RXR receptors = test: RAR/RXR activity profile drawn from the models; assay type: cell-based
# Source text: The reference molecules have allowed one to show the effectiveness and the complementary nature of the different models used and lead to the following conclusions: chimerical constructions GAL-RAR and RAR-ERcassette allow the determination of the RAR agonist profile of molecules, but also an RXR agonist activity with RAR-ERcassette, the HRLN lineage mainly conveys the activity of a compound mediated by endogenic RARα, the HRL+N lineage also provides evidence of an RXR agonist activity of the retinoids, the anti-oestrogenic effect of the retinoids (oestrogen-induced cellular proliferation and MELN lineage) is mediated by RARα, the anti-AP-1 effect is mediated in the MCF-7 cells (MTLN lineage) by RARα, RARγ and RXRα, and an additive effect exists between the RAR and RXR routes.
# [3] = system: AP-1, MTLN lineage (MCF-7); test: Anti-AP-1 effect, MTLN lineage activated by TPA; assay type: cell-based, human
# Procedure: as §4
# The anti-factor AP-1 transrepressor effect of retinoids is determined using the MTLN lineage, coming from MCF-7 cells transfected in a stable fashion by a vector p(TRE)3 -tk-Luc which places the expression of the gene of luciferase under the control of […]. TPA activates the AP-1 complex formed from proteins of the family of nuclear proto-oncogenes (c-Jun and c-Fos). […] The experiments are made with the MTLN cells activated by 10^-7 M TPA.
# The effect of the compounds on the MTLN cells activated by 10^-7 M TPA is expressed as a percentage. […] The inhibitive properties of the products are calculated after deduction of the base activity of the cells. The percentages reported correspond to a range of inhibitions determined from several experiments.
# [4] = system: RAR-ERcassettes (RARα, RARβ, RARγ); test: Chimerical receptors RAR-ERcassettes, overall profile; assay type: cell-based
# Source text: as §1, §2
# [5] = Homo sapiens, MCF7, cells activated by 10^-9 M estradiol
# [6] = Homo sapiens, MCF7, cells activated by 10^-9 M estradiol, read-out: anti-oestrogenic effect, inhibition
SMILES,RAR-ERcassette RARα transactivation (RARα-ERcassette; 10^-6 M),RAR-ERcassette RARβ transactivation (RARβ-ERcassette; 10^-6 M),RAR-ERcassette RARγ transactivation (RARγ-ERcassette; 10^-6 M),"effect on oestrogen-induced growth, T-47D (in words) (T-47D cells; estradiol 10^-9 M)","EC50 ([1]; Homo sapiens, HeLa, concentrations from 1 nM to 1 μM)","Emax ([1]; Homo sapiens, HeLa)","inhibition [2, 5]","inhibition at 0.1 µM [2, 6]","inhibition at 0.01 µM ([2]; Homo sapiens, MCF7, 10^-8 M, cells activated by 10^-9 M estradiol, read-out: anti-oestrogenic effect, inhibition)",anti-oestrogenic effect (in words) [2],RAR/RXR activity profile (in words) (RAR and RXR receptors),RAR-ERcassette RARα transactivation (RARα-ERcassette; 10^-7 M),RAR-ERcassette RARβ transactivation (RARβ-ERcassette; 10^-7 M),RAR-ERcassette RARγ transactivation (RARγ-ERcassette; 10^-7 M),"activity at 1 µM (T-47D cells; Homo sapiens, T47D, 168 h, 10^-6 M, 100% = E2 10^-9 M, 7 days, read-out: growth of T-47D cells)",HRLN transactivation (in words) [1],"inhibition at 1 µM ([3]; Homo sapiens, MCF7, 10^-6 M, cells activated by 10^-7 M TPA, range of several experiments)","inhibition at 0.1 µM ([3]; Homo sapiens, MCF7, 10^-7 M, cells activated by 10^-7 M TPA, range of several experiments, read-out: anti-AP-1 effect, inhibition)",anti-AP-1 effect (in words) ([3]; TPA-activated MTLN cells),RAR-ERcassette profile (in words) [4]
"C/C(=C\c1ccc2c(c1)C(C)(C)CCC2(C)C)c1ccc(C(=O)O)cc1 [CB24159, reference compound]",113%,117%,89%,inhibits the growth of the T-47D cells in a dose dependent manner with an efficacy greater than that of TTNPB,0.08 ± 0.1 nM,100%,22 to 37%,26 to 43%,31 to 43%,the most inhibiting of the oestrogenic transcription on the MELN model,RAR selective,–,–,–,–,–,–,–,–,–
"C/C(=C/c1ccc2c(c1)C(C)(C)CCC2(C)C)c1ccc(C(=O)O)s1 [CB30382, (Z) 2-[1-(5,6,7,8-tetrahydro-5,5,8,8-tetramethyl-2-naphthalenyl)-2-propenyl]thienyl-5-carboxylic acid]",93%,130%,83%,–,–,102%,2 to 20%,0%,–,permit a transrepression of a controlled gene by an ERE,panagonistic,12%,39%,29%,73 to 94%,induce a transactivation close to that of TTNPB,42 to 47%,21%,exert an inhibitor effect comparable to that of the effect of CB28628,induce a transactivation mediated by the three receptors
